This is an account of results in ChEMBL document CHEMBL1137898, “Benzopyranones with retro-amide side chains as (inhibitory) beta-lactamase substrates” (Bioorg Med Chem Lett, 2004).

Beta-lactamase TEM (Escherichia coli), sequence (P62593 whole entry): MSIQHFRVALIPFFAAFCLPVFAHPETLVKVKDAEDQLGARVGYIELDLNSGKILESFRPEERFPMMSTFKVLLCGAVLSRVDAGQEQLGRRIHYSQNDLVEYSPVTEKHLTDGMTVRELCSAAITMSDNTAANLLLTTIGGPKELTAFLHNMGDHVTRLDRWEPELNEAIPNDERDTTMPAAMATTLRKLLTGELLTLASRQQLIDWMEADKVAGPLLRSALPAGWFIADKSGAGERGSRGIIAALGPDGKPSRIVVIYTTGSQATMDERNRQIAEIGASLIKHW
D-alanyl-D-alanine carboxypeptidase (Streptomyces sp. R61), sequence (P15555 whole entry): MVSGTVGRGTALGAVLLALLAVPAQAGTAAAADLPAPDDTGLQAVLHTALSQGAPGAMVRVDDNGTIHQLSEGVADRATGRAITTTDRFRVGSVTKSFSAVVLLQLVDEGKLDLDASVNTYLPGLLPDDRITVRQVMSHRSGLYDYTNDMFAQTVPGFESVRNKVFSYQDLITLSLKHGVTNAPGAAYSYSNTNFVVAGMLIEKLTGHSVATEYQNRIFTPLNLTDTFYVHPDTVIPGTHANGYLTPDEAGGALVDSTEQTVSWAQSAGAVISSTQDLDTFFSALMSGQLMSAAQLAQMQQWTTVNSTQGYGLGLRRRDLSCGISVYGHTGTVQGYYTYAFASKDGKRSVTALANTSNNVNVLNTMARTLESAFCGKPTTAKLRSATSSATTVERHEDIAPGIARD

One test deals with Beta-lactamase (Staphylococcus aureus) (UniProt P00807). Nature of the test: Steady state kinetic as limiting rate of Staphylococcus aureus PC1 Beta-lactamase hydrolysis.
Beta-lactamase (Staphylococcus aureus), sequence (P00807 whole entry): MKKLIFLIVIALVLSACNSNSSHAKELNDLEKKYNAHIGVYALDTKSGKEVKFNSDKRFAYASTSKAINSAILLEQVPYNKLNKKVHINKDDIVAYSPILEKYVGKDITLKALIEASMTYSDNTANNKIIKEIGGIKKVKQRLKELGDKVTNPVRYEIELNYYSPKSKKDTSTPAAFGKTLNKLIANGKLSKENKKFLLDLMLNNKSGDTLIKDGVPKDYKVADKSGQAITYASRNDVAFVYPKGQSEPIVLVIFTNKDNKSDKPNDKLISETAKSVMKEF
Conditions: not given
Consider `O=C(O)c1cccc2c1OC(=O)C(C(=O)NCc1ccccc1)C2` (stereo not given), for which the K cat was found to be 0.01 s⁻¹.

As to `O=C(O)c1ccc2c(c1)OC(=O)C(C(=O)NCc1ccccc1)C2` (stereo not given), the K cat is > 0.005 s⁻¹.

For the compound `O=C(Cc1ccccc1)NC1Cc2cccc(C(=O)O)c2OC1=O` (stereo not given), the K cat worked out at 0.0047 s⁻¹.

With `O=C(Cc1ccccc1)NC1Cc2ccc(C(=O)O)cc2OC1=O` (stereo not given), the K cat came out at 0.02 s⁻¹.

In turn, `CC(=O)OCC1=C(C(=O)O)N2C(=O)[C@@H](NC(=O)Cc3cccs3)[C@H]2SC1` came in with a K cat of 0.001 s⁻¹.

A further test addresses D-alanyl-D-alanine carboxypeptidase (Streptomyces sp. R61) (UniProt P15555). The experiment in a line: Second order rate constant for inactivation of Streptomyces R61 D-alanyl-D-alanine carboxypeptidase. The settings on record: Streptomyces spp.
For the compound `O=C(O)c1cccc2c1OC(=O)C(C(=O)NCc1ccccc1)C2` (stereo not given), the K was 22 1/sM.

As to `O=C(Cc1ccccc1)NC1Cc2cccc(C(=O)O)c2OC1=O` (stereo not given), the K was 1.5 1/sM.

The next test concerns the target Beta-lactamase TEM (Escherichia coli) (UniProt P62593). The experiment in a line: Steady state kinetic as limiting rate of TEM-2 beta-lactamase hydrolysis.
Conditions: not given
Compound `O=C(O)c1cccc2c1OC(=O)C(C(=O)NCc1ccccc1)C2` (stereo not given) yielded a K cat of 25.5 s⁻¹.

As to `O=C(O)c1ccc2c(c1)OC(=O)C(C(=O)NCc1ccccc1)C2` (stereo not given), the K cat is > 0.02 s⁻¹.

`O=C(Cc1ccccc1)NC1Cc2cccc(C(=O)O)c2OC1=O` (stereo not given) displayed a K cat of 2.07 s⁻¹.

Consider `O=C(Cc1ccccc1)NC1Cc2ccc(C(=O)O)cc2OC1=O` (stereo not given), for which the K cat is > 1 s⁻¹.

In turn, `CC(=O)OCC1=C(C(=O)O)N2C(=O)[C@@H](NC(=O)Cc3cccs3)[C@H]2SC1` came in with a K cat of 120 s⁻¹.

A further test deals with Beta-lactamase (Enterobacter cloacae) (UniProt P05364). The experiment in a line: Steady state kinetic as limiting rate of Enterobacter cloacae P99 Beta-lactamase catalyzed hydrolysis.
Beta-lactamase (Enterobacter cloacae), sequence (P05364 21-381 limits assumed): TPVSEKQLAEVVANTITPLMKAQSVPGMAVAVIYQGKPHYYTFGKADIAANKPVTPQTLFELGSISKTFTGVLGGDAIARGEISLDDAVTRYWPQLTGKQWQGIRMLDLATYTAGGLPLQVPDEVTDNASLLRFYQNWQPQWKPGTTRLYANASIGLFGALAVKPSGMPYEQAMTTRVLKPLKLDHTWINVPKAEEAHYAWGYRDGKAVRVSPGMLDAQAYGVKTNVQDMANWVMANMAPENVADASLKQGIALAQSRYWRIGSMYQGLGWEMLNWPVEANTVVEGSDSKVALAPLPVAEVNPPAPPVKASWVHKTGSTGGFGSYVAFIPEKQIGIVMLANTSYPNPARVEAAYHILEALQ
Conditions: not given
In turn, `O=C(O)c1cccc2c1OC(=O)C(C(=O)NCc1ccccc1)C2` (stereo not given) returned a K cat of 0.44 s⁻¹.

`O=C(O)c1ccc2c(c1)OC(=O)C(C(=O)NCc1ccccc1)C2` (stereo not given) returned a K cat of 1.18 s⁻¹.

`O=C(Cc1ccccc1)NC1Cc2cccc(C(=O)O)c2OC1=O` (stereo not given): the K cat came to 5.4 s⁻¹.

For `O=C(Cc1ccccc1)NC1Cc2ccc(C(=O)O)cc2OC1=O` (stereo not given), the K cat was determined as 5.6 s⁻¹.

Take `CC(=O)OCC1=C(C(=O)O)N2C(=O)[C@@H](NC(=O)Cc3cccs3)[C@H]2SC1`: the K cat is 200 s⁻¹.

The target in the next test is Beta-lactamase OXA-1 (Escherichia coli) (UniProt P13661). The experiment in a line: Steady state kinetic as limiting rate of OXA-1 beta-lactamase hydrolysis.
Beta-lactamase OXA-1 (Escherichia coli), sequence (P13661 whole entry): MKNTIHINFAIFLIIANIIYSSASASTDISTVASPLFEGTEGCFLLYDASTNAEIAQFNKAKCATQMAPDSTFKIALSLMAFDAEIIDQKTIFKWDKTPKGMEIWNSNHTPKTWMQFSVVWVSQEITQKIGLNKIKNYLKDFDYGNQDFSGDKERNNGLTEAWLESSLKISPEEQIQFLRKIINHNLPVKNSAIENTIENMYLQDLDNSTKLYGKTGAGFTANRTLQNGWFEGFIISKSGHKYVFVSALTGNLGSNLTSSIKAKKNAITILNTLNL
Conditions: not given
Compound `O=C(O)c1cccc2c1OC(=O)C(C(=O)NCc1ccccc1)C2` (stereo not given) returned a K cat of 0.25 s⁻¹.

In the case of `O=C(Cc1ccccc1)NC1Cc2cccc(C(=O)O)c2OC1=O` (stereo not given), the K cat was 1.2 s⁻¹.

Regarding `CC(=O)OCC1=C(C(=O)O)N2C(=O)[C@@H](NC(=O)Cc3cccs3)[C@H]2SC1`, the K cat was found to be 1.2 s⁻¹.
